Patent US7022688B1, “Use of 17β-dihydroequilenin as an antioxidant” (Wyeth, priority 1996, dated 2006)

Legend:
[1] = system: oxidatively modified low density lipoprotein (LDL); assay: porcine aortic endothelial cell mediated LDL oxidation assay (TBARS method); format: cell-based; conditions: pocine aortic endothelial cell mediated oxidation of LDL
Source text: (§1) The antioxidant properties of 17β-dihydroequilenin were established in a standard pharmacological test procedure that measured the its ability to inhibit the formation of oxidatively modified low density lipoprotein (LDL) induced by exposure to either Cu++ ions or cultured endothelial cells (Parthasarathy S, Proc Natl Acad Sci USA 86:1046–1050 (1989)) by the TBARS (thiobarbituric acid reactive substances) method for analysis of free aldehydes (Yagi K., Biochem Med 15:212–216 (1976)).

[2] = system: oxidatively modified low density lipoprotein (LDL); assay: inhibition of LDL oxidation induced by Cu++ ions or cultured endothelial cells (TBARS method); conditions: maximal inhibition of the process
Source text: as §1

Row | SMILES | IC50 [1] | inhibition of LDL oxidation [2]
1 | C[C@]12CC[C@@H]3c4ccc(O)cc4CC[C@H]3[C@@H]1CCC2=O [estrone, reference compound] | 560 nM | –
2 | C[C@]12CCc3c(ccc4cc(O)ccc34)[C@@H]1CC[C@@H]2O [17β-dihydroequilenin] | 315 nM | up to 100%
